This experiment has as its target T1, Human Rheumatoid Synovial Collagenase (Homo sapiens, UniProt P03956).
T1 construct: from tissue
T1 sequence (P03956 100-469): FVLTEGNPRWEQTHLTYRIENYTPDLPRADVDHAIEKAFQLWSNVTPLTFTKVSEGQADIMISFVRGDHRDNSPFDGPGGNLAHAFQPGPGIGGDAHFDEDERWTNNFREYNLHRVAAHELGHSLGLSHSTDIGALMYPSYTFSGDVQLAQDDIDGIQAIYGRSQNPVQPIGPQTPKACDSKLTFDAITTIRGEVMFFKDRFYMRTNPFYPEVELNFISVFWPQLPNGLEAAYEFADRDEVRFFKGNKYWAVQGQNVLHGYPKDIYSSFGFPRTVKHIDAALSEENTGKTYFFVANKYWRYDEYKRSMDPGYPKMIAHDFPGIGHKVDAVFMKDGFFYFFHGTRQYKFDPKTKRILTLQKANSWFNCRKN
The experiment in a line: Collagenase inhibition (acetyl 14C collagen hydrolysis, procedure of Cawston and Barrett). Type of experiment: biochemical. The conditions noted are these: incubated at 37° C. for 16 hours with native acetyl 14C collagen and collagenase, Tris HCl-CaCl2, pH 7.6. On the procedure:
This was determined following the procedure of Cawston and Barrett, (Anal. […] The collagen is acetyl ^14 C collagen. The samples are centrifuged to sediment undigested collagen and an aliquot of the radioactive supernatant removed for assay on a scintillation counter as a measure of hydrolysis.

These results are taken from patent publication US4743587A, “Hydroxamic acid based collagenase inhibitors” (G. D. Searle & Co., priority 1986, dated 1988).

The structures appear in SMILES notation. Bounds are passed on as bounds.

In the case of `CNC(=O)[C@H](Cc1ccc(OC)cc1)NC(=O)C(CC(C)C)C(C)C(=O)NO` (single isomer, unassigned) [3(A), N-[3-(N'-Hydroxycarboxamido)-2-(2-methylpropyl)butanoyl]-O-methyl-L-tyrosine N-Methylamide], the IC50 is 0.4 µM. `CNC(=O)[C@H](Cc1ccc(OC)cc1)NC(=O)C(CC(C)C)C(C)C(=O)NO` (single isomer, unassigned) [3(B), N-[3-(N'-Hydroxycarboxamido)-2-(2-methylpropyl)butanoyl]-O-methyl-L-tyrosine N-Methylamide] came in with an IC50 of 20 µM. The result for `CNC(=O)[C@H](Cc1ccc(OC)cc1)NC(=O)C(CC(C)C)C(C)C(=O)NO` (single isomer, unassigned) [3(C), N-[3-(N'-Hydroxycarboxamido)-2-(2-methylpropyl)butanoyl]-O-methyl-L-tyrosine N-Methylamide] reads 0.02 µM; that for `CNC(=O)[C@H](Cc1ccc(OC)cc1)NC(=O)C(CC(C)C)C(C)C(=O)NO` (single isomer, unassigned) [3(D), N-[3-(N'-Hydroxycarboxamido)-2-(2-methylpropyl)butanoyl]-O-methyl-L-tyrosine N-Methylamide], 0.3 µM; that for `CNC(=O)[C@H](Cc1ccc(OC)cc1)NC(=O)C(CC(C)C)C(C(=O)NO)c1ccccc1` (single isomer, unassigned) [4(A), N-[3-(N'-Hydroxycarboxamido)-2-(2-methylpropyl)-3-phenylpropanoyl]-O-methyl-L-tyrosine N-Methylamide], 0.6 µM. For `CNC(=O)[C@H](Cc1ccc(OC)cc1)NC(=O)C(CC(C)C)C(C(=O)NO)c1ccccc1` (single isomer, unassigned) [4(B), N-[3-(N'-Hydroxycarboxamido)-2-(2-methylpropyl)-3-phenylpropanoyl]-O-methyl-L-tyrosine N-Methylamide] the value was 1 µM; for `CNC(=O)[C@H](C)NC(=O)C(CC(=O)NO)CC(C)C` (single isomer, unassigned) [8(A), N-[3-(N'-Hydroxycarboxamido)-2-(2-methylpropyl)propanoyl]-L-alanine N-Methylamide], 0.15 µM; for `CNC(=O)[C@H](Cc1ccc(O)cc1)NC(=O)C(CC(=O)NO)CC(C)C` (single isomer, unassigned) [9(A), N-[3-(N'-Hydroxycarboxamido)-2-(2-methylpropyl)propanoyl]-L-tyrosine N-Methylamide], 0.037 µM. For `CNC(=O)[C@H](Cc1ccc(O)cc1)NC(=O)C(CC(=O)NO)CC(C)C` (single isomer, unassigned) [9(B), N-[3-(N'-Hydroxycarboxamido)-2-(2-methylpropyl)propanoyl]-L-tyrosine N-Methylamide], half-maximal inhibition (IC50) was put at 0.52 µM. The molecule `CCCCC(CC(=O)NO)C(=O)N[C@@H](Cc1ccc(OC)cc1)C(=O)NC` (single isomer, unassigned) [12(B)] had an IC50 of 1 µM.

On to `CNC(=O)[C@H](Cc1ccc(OC)cc1)NC(=O)C(CC(=O)NO)Cc1ccccc1` (single isomer, unassigned) [13(A), N-[3-(N'-Hydroxycarboxamido)-2-benzylpropanoyl]-O-methyl-L-tyrosine N-Methylamide], for which the IC50 turned out to be 5 µM.

As for `CNC(=O)[C@H](Cc1ccc(OC)cc1)NC(=O)C(CC(=O)NO)Cc1ccccc1` (single isomer, unassigned) [13(B), N-[3-(N'-Hydroxycarboxamido)-2-benzylpropanoyl]-O-methyl-L-tyrosine N-Methylamide], the concentration for half-maximal inhibition (IC50) was above 100 µM. For `CCCCC(C(=O)NO)C(CC(C)C)C(=O)N[C@@H](Cc1ccc(OC)cc1)C(=O)NC` (single isomer, unassigned) [18(A), N-[3-(N'-Hydroxycarboxamido)-2-(2-methylpropyl)heptanoy]-O-methyl-L-tyrosine N-Methylamide] the value was 0.2 µM; for `CCCCC(C(=O)NO)C(CC(C)C)C(=O)N[C@@H](Cc1ccc(OC)cc1)C(=O)NC` (single isomer, unassigned) [18(B), N-[3-(N'-Hydroxycarboxamido)-2-(2-methylpropyl)heptanoy]-O-methyl-L-tyrosine N-Methylamide], above 100 µM. The result for `CNC(=O)[C@H](C)NC(=O)C(CC(C)C)C(C)C(=O)NO` (single isomer, unassigned) [19(A), N-[3-(N'-Hydroxycarboxamido)-2-(2-methylpropyl)butanoyl]-L-alanine N-Methylamide] reads 100 µM; that for `CNC(=O)[C@H](C)NC(=O)C(CC(C)C)C(C)C(=O)NO` (single isomer, unassigned) [19(B), N-[3-(N'-Hydroxycarboxamido)-2-(2-methylpropyl)butanoyl]-L-alanine N-Methylamide], 0.3 µM; that for `CCCCC(CC(=O)NO)C(=O)N[C@@H](Cc1ccc(OC)cc1)C(=O)NC` (stereo partly drawn) [12(A)], 0.03 µM.

The molecule `CNC(=O)[C@H](Cc1ccc(OC)cc1)NC(=O)C(C)CC(=O)NO` (stereo partly drawn) [Example 5, N-[3-(N'-Hydroxycarboxamido)-2-methylpropanoyl]-O-methyl-L-tyrosine N-Methylamide] came in with an IC50 of 100 to 1000 µM. The result for `CNC(=O)[C@H](Cc1ccc(OC)cc1)NC(=O)CCC(=O)NO` [Example 6, N-[3-(N'-Hydroxycarboxamido)propanoyl]-O-methyl-L-tyrosine N-Methylamide] reads above 1000 µM. For `CNC(=O)[C@H](Cc1ccc(OC)cc1)NC(=O)C(=CC(=O)NO)CC(C)C` [Example 7, N-[3-(N'-Hydroxycarboxamido)-2-(2-methylpropyl)propenoyl]-O-methyl-L-tyrosine N-Methylamide] the value was 0.7 µM; for `CNC(=O)[C@H](Cc1ccc(OC)cc1)NC(=O)C(CC(C)C)=C(C)C(=O)NO` [Example 20, N-[3-(N'-Hydroxycarboxamido)-2-(2-methylpropyl)-Δ^2,3-butenoyl]-O-methyl-L-tyrosine N Methylamide], 1 µM.

In general, IC50 refers to the concentration at which inhibition is half-maximal.
